Data: BigSolDB 2.1

In the case of Cc1c(-c2ccccc2)oc2c(C(=O)OCCN3CCCCC3)cccc2c1=O.Cl, the solubility (mole fraction) (in 2-ethoxyethanol, 278.15 K) is reported as 0.000121, the solubility (mole fraction) (in 2-ethoxyethanol, 283.15 K) is reported as 0.000162 and the solubility (mole fraction) (in 2-ethoxyethanol, 288.15 K) is reported as 0.000173. It also gave a solubility (mole fraction) (in 2-ethoxyethanol, 293.15 K) of 0.000211, a solubility (mole fraction) (in 2-ethoxyethanol, 298.15 K) of 0.000252 and a solubility (mole fraction) (in 2-ethoxyethanol, 303.15 K) of 0.000309. For the same compound, the solubility (mole fraction) (in 2-ethoxyethanol, 308.15 K) was 0.000362, the solubility (mole fraction) (in 2-ethoxyethanol, 313.15 K) was 0.00044 and the solubility (mole fraction) (in 2-ethoxyethanol, 318.15 K) was 0.000533. It also gave a solubility (mole fraction) (in 2-ethoxyethanol, 323.15 K) of 0.000636, a solubility (mole fraction) (in 2-methoxyethanol, 278.15 K) of 0.000431 and a solubility (mole fraction) (in 2-methoxyethanol, 283.15 K) of 0.000521. For the same compound, the solubility (mole fraction) (in 2-methoxyethanol, 288.15 K) was 0.000578, the solubility (mole fraction) (in 2-methoxyethanol, 293.15 K) was 0.000675 and the solubility (mole fraction) (in 2-methoxyethanol, 298.15 K) was 0.000788. It also gave a solubility (mole fraction) (in 2-methoxyethanol, 303.15 K) of 0.000931, a solubility (mole fraction) (in 2-methoxyethanol, 308.15 K) of 0.00107 and a solubility (mole fraction) (in 2-methoxyethanol, 313.15 K) of 0.00129. The solubility (mole fraction) (in 2-methoxyethanol, 318.15 K) was 0.00152, the solubility (mole fraction) (in 2-methoxyethanol, 323.15 K) was 0.00182 and the solubility (mole fraction) (in 2-propoxyethanol, 278.15 K) was 0.000193. The solubility (mole fraction) (in 2-propoxyethanol, 283.15 K) was 0.000212, the solubility (mole fraction) (in 2-propoxyethanol, 288.15 K) was 0.000255 and the solubility (mole fraction) (in 2-propoxyethanol, 293.15 K) was 0.000303. The solubility (mole fraction) (in 2-propoxyethanol, 298.15 K) was 0.000355, the solubility (mole fraction) (in 2-propoxyethanol, 303.15 K) was 0.000413 and the solubility (mole fraction) (in 2-propoxyethanol, 308.15 K) was 0.000509. The solubility (mole fraction) (in 2-propoxyethanol, 313.15 K) was 0.000593, the solubility (mole fraction) (in 2-propoxyethanol, 318.15 K) was 0.000704 and the solubility (mole fraction) (in 2-propoxyethanol, 323.15 K) was 0.000881. The solubility (mole fraction) (in DMSO, 293.15 K) was 0.000626, the solubility (mole fraction) (in DMSO, 298.15 K) was 0.000775 and the solubility (mole fraction) (in DMSO, 303.15 K) was 0.000911. For the same compound, the solubility (mole fraction) (in DMSO, 308.15 K) was 0.00107, the solubility (mole fraction) (in DMSO, 313.15 K) was 0.00129 and the solubility (mole fraction) (in DMSO, 318.15 K) was 0.00152. The solubility (mole fraction) (in DMSO, 323.15 K) was 0.0018, the solubility (mole fraction) (in NMP, 278.15 K) was 0.000254 and the solubility (mole fraction) (in NMP, 283.15 K) was 0.000334. For the same compound, the solubility (mole fraction) (in NMP, 288.15 K) was 0.00039, the solubility (mole fraction) (in NMP, 293.15 K) was 0.00047 and the solubility (mole fraction) (in NMP, 298.15 K) was 0.000548. It also gave a solubility (mole fraction) (in NMP, 303.15 K) of 0.000646, a solubility (mole fraction) (in NMP, 308.15 K) of 0.000768 and a solubility (mole fraction) (in NMP, 313.15 K) of 0.000919. It also gave a solubility (mole fraction) (in NMP, 318.15 K) of 0.00109, a solubility (mole fraction) (in NMP, 323.15 K) of 0.0013 and a solubility (mole fraction) (in acetonitrile, 278.15 K) of 2.88e-05. The solubility (mole fraction) (in acetonitrile, 283.15 K) was 3.71e-05, the solubility (mole fraction) (in acetonitrile, 288.15 K) was 4.2e-05 and the solubility (mole fraction) (in acetonitrile, 293.15 K) was 4.95e-05. For the same compound, the solubility (mole fraction) (in acetonitrile, 298.15 K) was 6.13e-05, the solubility (mole fraction) (in acetonitrile, 303.15 K) was 7.58e-05 and the solubility (mole fraction) (in acetonitrile, 308.15 K) was 8.98e-05. For the same compound, the solubility (mole fraction) (in acetonitrile, 313.15 K) was 0.000112, the solubility (mole fraction) (in acetonitrile, 318.15 K) was 0.000141 and the solubility (mole fraction) (in acetonitrile, 323.15 K) was 0.000174. The solubility (mole fraction) (in ethanol, 278.15 K) was 8.81e-05, the solubility (mole fraction) (in ethanol, 283.15 K) was 9.89e-05 and the solubility (mole fraction) (in ethanol, 288.15 K) was 0.000117. For the same compound, the solubility (mole fraction) (in ethanol, 293.15 K) was 0.000143, the solubility (mole fraction) (in ethanol, 298.15 K) was 0.000182 and the solubility (mole fraction) (in ethanol, 303.15 K) was 0.00022. For the same compound, the solubility (mole fraction) (in ethanol, 308.15 K) was 0.000284, the solubility (mole fraction) (in ethanol, 313.15 K) was 0.000364 and the solubility (mole fraction) (in ethanol, 318.15 K) was 0.000452. It also gave a solubility (mole fraction) (in ethanol, 323.15 K) of 0.000565, a solubility (mole fraction) (in ethylene glycol, 278.15 K) of 0.000868 and a solubility (mole fraction) (in ethylene glycol, 283.15 K) of 0.00115. For the same compound, the solubility (mole fraction) (in ethylene glycol, 288.15 K) was 0.00136, the solubility (mole fraction) (in ethylene glycol, 293.15 K) was 0.00161 and the solubility (mole fraction) (in ethylene glycol, 298.15 K) was 0.002. For the same compound, the solubility (mole fraction) (in ethylene glycol, 303.15 K) was 0.00236, the solubility (mole fraction) (in ethylene glycol, 308.15 K) was 0.00284 and the solubility (mole fraction) (in ethylene glycol, 313.15 K) was 0.00347. It also gave a solubility (mole fraction) (in ethylene glycol, 318.15 K) of 0.00415, a solubility (mole fraction) (in ethylene glycol, 323.15 K) of 0.005 and a solubility (mole fraction) (in methanol, 278.15 K) of 0.000529. The solubility (mole fraction) (in methanol, 283.15 K) was 0.000637, the solubility (mole fraction) (in methanol, 288.15 K) was 0.000808 and the solubility (mole fraction) (in methanol, 293.15 K) was 0.000961. For the same compound, the solubility (mole fraction) (in methanol, 298.15 K) was 0.00116, the solubility (mole fraction) (in methanol, 303.15 K) was 0.0014 and the solubility (mole fraction) (in methanol, 308.15 K) was 0.00169. The solubility (mole fraction) (in methanol, 313.15 K) was 0.00207, the solubility (mole fraction) (in methanol, 318.15 K) was 0.00255 and the solubility (mole fraction) (in methanol, 323.15 K) was 0.00317. For the same compound, the solubility (mole fraction) (in n-butanol, 278.15 K) was 3.52e-05, the solubility (mole fraction) (in n-butanol, 283.15 K) was 4.51e-05 and the solubility (mole fraction) (in n-butanol, 288.15 K) was 6.1e-05. It also gave a solubility (mole fraction) (in n-butanol, 293.15 K) of 9.1e-05, a solubility (mole fraction) (in n-butanol, 298.15 K) of 0.000124 and a solubility (mole fraction) (in n-butanol, 303.15 K) of 0.000171. For the same compound, the solubility (mole fraction) (in n-butanol, 308.15 K) was 0.000223, the solubility (mole fraction) (in n-butanol, 313.15 K) was 0.000303 and the solubility (mole fraction) (in n-butanol, 318.15 K) was 0.000374. For the same compound, the solubility (mole fraction) (in n-butanol, 323.15 K) was 0.000468, the solubility (mole fraction) (in n-propanol, 278.15 K) was 2.87e-05 and the solubility (mole fraction) (in n-propanol, 283.15 K) was 3.76e-05. The solubility (mole fraction) (in n-propanol, 288.15 K) was 4.58e-05, the solubility (mole fraction) (in n-propanol, 293.15 K) was 6.56e-05 and the solubility (mole fraction) (in n-propanol, 298.15 K) was 0.000107. For the same compound, the solubility (mole fraction) (in n-propanol, 303.15 K) was 0.000142, the solubility (mole fraction) (in n-propanol, 308.15 K) was 0.000188 and the solubility (mole fraction) (in n-propanol, 313.15 K) was 0.000252. The solubility (mole fraction) (in n-propanol, 318.15 K) was 0.000331, the solubility (mole fraction) (in n-propanol, 323.15 K) was 0.000425 and the solubility (mole fraction) (in water, 278.15 K) was 0.000219. It also gave a solubility (mole fraction) (in water, 283.15 K) of 0.00026, a solubility (mole fraction) (in water, 288.15 K) of 0.000301 and a solubility (mole fraction) (in water, 293.15 K) of 0.000361. For the same compound, the solubility (mole fraction) (in water, 298.15 K) was 0.000442, the solubility (mole fraction) (in water, 303.15 K) was 0.000526 and the solubility (mole fraction) (in water, 308.15 K) was 0.000629. For the same compound, the solubility (mole fraction) (in water, 313.15 K) was 0.000757, the solubility (mole fraction) (in water, 318.15 K) was 0.00092 and the solubility (mole fraction) (in water, 323.15 K) was 0.00114.
